Tested on: tobacco budworm (Heliothis virescens [Fabricius])
Experiment: surface-treated diet test against tobacco budworm
Format: in vivo
Conditions: 0.25 millimolar candidate insecticide on the surface of the diet, second instar larvae, five-day exposure; for Percent Mortality: compared to total number of insects infested; for Percent Growth Inhibition: inhibition of insect weight relative to untreated controls
Description: Candidate insecticides were evaluated for activity against the tobacco budworm (Heliothis virescens [Fabricius]) in a surface-treated diet test.
In this test one mL of molten (65-70° C.) wheat germ-based artificial diet was pipetted into each well of a four by six (24 well) multi-well plate (ID# 430345-15.5 mm dia.×17.6 mm deep; Corning Costar Corp., One Alewife Center, Cambridge, Mass. 02140). The diet was allowed to cool to ambient temperature before treatment with candidate insecticide.
For a determination of insecticidal activity, solutions of the candidate insecticides were prepared for testing using a Packard 204DT Multiprobe® Robotic System (Packard Instrument Company, 800 Research Parkway, Meriden, Conn. 06450), in which the robot first diluted a standard 50 millimolar DMSO solution of candidate insecticide with a 1:1 water/acetone solution (V/V) in a ratio of 1:7 stock solution to water/acetone. The robot subsequently pipetted 40 microliters of the so-prepared solution onto the surface of the diet in each of three wells in the 24 multi-well plate. The process was repeated with solutions of seven other candidate insecticides. Once treated, the contents of the multi-well plate were allowed to dry, leaving 0.25 millimoles of candidate insecticide on the surface of the diet, or a concentration of 0.25 millimolar. Appropriate untreated controls containing only DMSO on the diet surface were also included in this test.
For evaluations of the insecticidal activity of a candidate insecticide at varying rates of application, the test was established as described above using sub-multiples of the standard 50 millimolar DMSO solution of candidate insecticide. For example, the standard 50 millimolar solution was diluted by the robot with DMSO to give 5, 0.5, 0.05, 0.005, 0.0005 millimolar, or more dilute solutions of the candidate insecticide. In these evaluations there were six replicates of each rate of application placed on the surface of the diet in the 24 multi-well plate, for a total of four rates of application of candidate insecticide in each plate.
In each well of the test plate was placed one second instar tobacco budworm larvea, each weighing approximately five milligrams. After the larvae were placed in each well, the plate was sealed with clear polyfilm adhesive tape. The tape over each well was perforated to ensure an adequate air supply. The plates were then held in a growth chamber at 25° C. and 60% relative humidity for five days (light 14 hours/day).
After the five-day exposure period insecticidal activity for each rate of application of candidate insecticide was assessed as percent inhibition of insect weight relative to the weight of insects from untreated controls, and percent mortality when compared to the total number of insects infested.

| Structure (SMILES) | Percent Mortality [%] | Percent Growth Inhibition [%] |
| --- | --- | --- |
| O=c1n(CCCCOc2c(Cl)cc(OCC=C(Cl)Cl)cc2Cl)nnn1-c1cc(Cl)cc(Cl)c1 [Compound 299] | 100 | 100 |
| O=c1cnn(-c2ccccc2)c(=O)n1CCCCOc1c(Cl)cc(OCC=C(Cl)Cl)cc1Cl [Compound 657] | 100 | 100 |
| O=c1n(CCCCOc2c(Cl)cc(OCC=C(Cl)Cl)cc2Cl)nnn1Cc1ccccc1Cl [Compound 513] | 100 | 100 |
| O=c1n(Cc2ccc(C(F)(F)F)cc2)cnn1CCOc1c(Cl)cc(OCC=C(Cl)Cl)cc1Cl [Compound 548] | 100 | 100 |
| O=c1n(CCCCOc2c(Cl)cc(OCC=C(Cl)Cl)cc2Cl)cnn1-c1ccc(C(F)(F)F)cc1 [Compound 107, 4-{4-[4-(3,3-Dichloroprop-2-enyloxy)-2,6-dichlorophenoxy]butyl}-1-[4-(trifluoromethyl)-phenyl]-1,2,4-triazolin-5-one] | 100 | 100 |
| O=c1n(CCCOc2c(Cl)cc(OCC=C(Cl)Cl)cc2Cl)nnn1Cc1ccccc1Cl [Compound 523] | 100 | 100 |
| Cc1nn(-c2ccccc2F)c(=O)n1CCCCOc1c(Cl)cc(OCC=C(Cl)Cl)cc1Cl [Compound 114] | 100 | 100 |
| Cc1nn(-c2ccccc2)c(=O)n1CCCCOc1c(Cl)cc(OCC=C(Cl)Cl)cc1Cl [Compound 110] | 100 | 100 |
| O=c1n(CCCCOc2c(Cl)cc(OCC=C(Cl)Cl)cc2Cl)cnn1-c1cccc(Cl)c1 [Compound 75] | 100 | 100 |
| Cc1ccc(-n2ncn(CCCCOc3c(Cl)cc(OCC=C(Cl)Cl)cc3Cl)c2=O)cc1 [Compound 86] | 100 | 100 |
| Cc1nn(-c2ccc(C(F)(F)F)cc2)c(=O)n1CCCCOc1c(Cl)cc(OCC=C(Cl)Cl)cc1Cl [Compound 131] | 100 | 100 |
| O=c1n(CCCCOc2c(Cl)cc(OCC=C(Cl)Cl)cc2Cl)cnn1-c1ccc([N+](=O)[O-])cc1 [Compound 93] | 100 | 100 |
| CC1(C)Cc2cccc(-n3nnn(CCCCOc4c(Cl)cc(OCC=C(Cl)Cl)cc4Cl)c3=O)c2O1 [Compound 335] | 100 | 100 |
| O=c1n(CCCCOc2c(Cl)cc(OCC=C(Cl)Cl)cc2Cl)nnn1Cc1ccc(Cl)c(Cl)c1 [Compound 520] | 0 | 58 |
| O=c1n(CCCCOc2c(Cl)cc(OCC=C(Cl)Cl)cc2Cl)cnn1-c1ccc(Cl)cc1 [Compound 91] | 100 | 100 |
| Cc1nn(-c2ccc(C(C)(C)C)cc2)c(=O)n1CCCCOc1c(Cl)cc(OCC=C(Cl)Cl)cc1Cl [Compound 125] | 100 | 100 |
| O=c1n(CCCCOc2c(Cl)cc(OCC=C(Cl)Cl)cc2Cl)nnn1Cc1ccc(Cl)cc1Cl [Compound 517] | 100 | 100 |
| Cc1ccc(-n2ncn(CCCCOc3c(Cl)cc(OCC=C(Cl)Cl)cc3Cl)c2=O)cc1Cl [Compound 101] | 100 | 100 |
| O=c1n(CCCCOc2c(Cl)cc(OCC=C(Cl)Cl)cc2Cl)nnn1-c1ccccc1 [Compound 307] | 100 | 100 |
| O=c1n(CCCCOc2c(Cl)cc(OCC=C(Cl)Cl)cc2Cl)nnn1-c1ccc(OC(F)(F)F)cc1 [Compound 303] | 100 | 100 |
| Cc1nn(-c2ccc(Cl)cc2F)c(=O)n1CCCCOc1c(Cl)cc(OCC=C(Cl)Cl)cc1Cl [Compound 123] | 100 | 100 |
| O=c1n(Cc2ccc(C(F)(F)F)cc2)cnn1CCCCOc1c(Cl)cc(OCC=C(Cl)Cl)cc1Cl [Compound 546] | 100 | 100 |
| O=C1C(=O)N(c2ccc(Cl)cc2)C(=O)N1CCCCOc1c(Cl)cc(OCC=C(Cl)Cl)cc1Cl [Compound 613] | 100 | 100 |

| Structure (SMILES) | Percent Mortality [%] | Percent Growth Inhibition [%] |
| --- | --- | --- |
| Cc1cc(C)cc(-n2ncn(CCCCOc3c(Cl)cc(OCC=C(Cl)Cl)cc3Cl)c2=O)c1 [Compound 100] | 100 | 100 |
| O=c1n(CCCCOc2c(Cl)cc(OCC=C(Cl)Cl)cc2Cl)cnn1-c1cc(Cl)cc(Cl)c1 [Compound 81] | 100 | 100 |
| O=c1cnn(-c2cccc(Cl)c2)c(=O)n1CCCCOc1c(Cl)cc(OCC=C(Cl)Cl)cc1Cl [Compound 650] | 100 | 100 |
| O=c1n(CCCCOc2c(Cl)cc(OCC=C(Cl)Cl)cc2Cl)nnn1-c1ccc(C(F)(F)F)cc1 [Compound 293] | 100 | 100 |
| Cc1cc(-n2ncn(CCCCOc3c(Cl)cc(OCC=C(Cl)Cl)cc3Cl)c2=O)ccc1Cl [Compound 88] | 100 | 100 |
| COc1cc(-n2ncc(=O)n(CCCCOc3c(Cl)cc(OCC=C(Cl)Cl)cc3Cl)c2=O)ccc1Cl [Compound 654] | 100 | 100 |
| O=c1n(CCOc2c(Cl)cc(OCC=C(Cl)Cl)cc2Cl)nnn1-c1cccc(Cl)c1 [Compound 308] | 100 | 100 |
| COc1ccc(-n2ncc(=O)n(CCCCOc3c(Cl)cc(OCC=C(Cl)Cl)cc3Cl)c2=O)cc1 [Compound 655] | 100 | 100 |
| O=c1cnn(-c2ccc(F)cc2F)c(=O)n1CCCCOc1c(Cl)cc(OCC=C(Cl)Cl)cc1Cl [Compound 653] | 100 | 100 |
| O=c1n(CCCOc2c(Cl)cc(OCC=C(Cl)Cl)cc2Cl)nnn1-c1cccc(Cl)c1 [Compound 309] | 100 | 100 |
| O=c1cnn(-c2ccc(OC(F)F)cc2)c(=O)n1CCCCOc1c(Cl)cc(OCC=C(Cl)Cl)cc1Cl [Compound 656] | 100 | 100 |
| O=c1n(CCCCOc2c(Cl)cc(OCC=C(Cl)Cl)cc2Cl)cnn1-c1ccc(I)cc1 [Compound 90] | 100 | 100 |
| O=c1cnn(-c2ccc(Cl)cc2Cl)c(=O)n1CCCCOc1c(Cl)cc(OCC=C(Cl)Cl)cc1Cl [Compound 648] | 100 | 100 |
| O=C1CN(CCCCOc2c(Cl)cc(OCC=C(Cl)Cl)cc2Cl)C(=O)N1c1ccc(Cl)cc1 [Compound 576] | 100 | 100 |
| CC(C)(C)c1ccc(-n2nnn(CCCCOc3c(Cl)cc(OCC=C(Cl)Cl)cc3Cl)c2=O)cc1 [Compound 291] | 100 | 100 |
| O=c1n(CCOc2c(Cl)cc(OCC=C(Cl)Cl)cc2Cl)cnn1-c1ccc(C(F)(F)F)cc1 [Compound 105] | 100 | 100 |
| O=c1n(CCCCOc2c(Cl)cc(OCC=C(Cl)Cl)cc2Cl)cnn1-c1cc(F)cc(F)c1 [Compound 87] | 100 | 100 |
| Cc1nn(-c2ccc(Cl)cc2Cl)c(=O)n1CCCCOc1c(Cl)cc(OCC=C(Cl)Cl)cc1Cl [Compound 118] | 100 | 100 |
| O=c1n(CCCCOc2c(Cl)cc(OCC=C(Cl)Cl)cc2Cl)nnn1-c1cccc(C(F)(F)F)c1 [Compound 304] | 100 | 100 |
| O=c1n(CCCCOc2c(Cl)cc(OCC=C(Cl)Cl)cc2Cl)nnn1Cc1ccccc1 [Compound 512] | 100 | 100 |
| O=c1n(CCCCOc2c(Cl)cc(OCC=C(Cl)Cl)cc2Cl)cnn1-c1cccc(Cl)c1Cl [Compound 76] | 100 | 100 |
| O=c1n(CCCCOc2c(Cl)cc(OCC=C(Cl)Cl)cc2Cl)cnn1-c1ccc(Cl)c(Cl)c1 [Compound 80] | 100 | 100 |
| O=c1n(-c2ccc(Cl)cc2)cnn1CCCCOc1c(Cl)cc(OCC=C(Cl)Cl)cc1Cl [Compound 41] | 100 | 100 |
